8 compounds from patent US10448639B2, “Fungicidal pyrazoles” (FMC CORPORATION, priority 2009, dated 2019) can be followed below.

Molecules are shown by their SMILES.

In one experiment the test system is Alternaria solani. Briefly: Test C: tomato early blight, preventive spray on tomato seedlings, visual disease rating. To be noted: tomato early blight; 100 = 100% disease control, 0 = no control relative to controls.
Consider `Cc1nn(C)c(Nc2ccc(C#N)cc2Cl)c1-c1ccc(F)cc1Cl` [compound 162], for which the “Test C rating (% disease control)” value came to 0%.

Consider `Cc1nn(C)c(Oc2ccc(C#N)c(C#N)c2)c1-c1ccc(F)cc1Cl` [compound 168], for which the “Test C rating (% disease control)” value is 0%.

In the case of `COc1ccc(Nc2c(-c3c(F)cccc3F)c(C)nn2C)c(Cl)c1` [compound 201], the “Test C rating (% disease control)” value is 97%.

With `COc1cc(F)ccc1Nc1c(-c2c(F)cccc2F)c(C)nn1C` [compound 199], the “Test C rating (% disease control)” value was 86%.

On to `Cc1cccc(Oc2c(-c3c(F)cc(F)cc3F)c(C)nn2C)c1` [compound 219], for which the “Test C rating (% disease control)” value is 0%.

The same experiment, now with this note: tomato early blight; 100 = 100% disease control, 0 = no disease control relative to controls.
Turning to `Cc1nn(C)c(Nc2ccc(F)cc2F)c1-c1ccccc1Cl` [compound 315], the “Test C disease control rating” value turned out to be 99%.

Turning to `Cc1nn(C)c(Nc2ccc(F)cc2Br)c1-c1c(Cl)cccc1Cl` [compound 340], the “Test C disease control rating” value stood at 0%.

As to `Cc1nn(C)c(Nc2ccc(F)cc2Br)c1-c1ccc(F)cc1Br` [compound 313], the “Test C disease control rating” value was 97%.

A further experiment relates to Erysiphe graminis f sp. tritici. Briefly: Test J: wheat powdery mildew, preventive spray on wheat seedlings, visual disease rating. The settings on record: wheat powdery mildew, sprayed the day before inoculation; 100 = 100% disease control, 0 = no disease control relative to controls.
With `Cc1nn(C)c(Nc2ccc(F)cc2F)c1-c1ccccc1Cl` [compound 315], the “Test J disease control rating” value stood at 100%.

As to `Cc1nn(C)c(Nc2ccc(F)cc2Br)c1-c1c(Cl)cccc1Cl` [compound 340], the “Test J disease control rating” value was determined as 100%.

`Cc1nn(C)c(Nc2ccc(F)cc2Br)c1-c1ccc(F)cc1Br` [compound 313]: the “Test J disease control rating” value worked out at 100%.

The experiment is the same for the next values; noted with them: wheat powdery mildew; 100 = 100% disease control, 0 = no control relative to controls.
For `Cc1nn(C)c(Nc2ccc(C#N)cc2Cl)c1-c1ccc(F)cc1Cl` [compound 162], the “Test J rating (% disease control)” value was found to be 94%.

As to `Cc1nn(C)c(Oc2ccc(C#N)c(C#N)c2)c1-c1ccc(F)cc1Cl` [compound 168], the “Test J rating (% disease control)” value came to 0%.

Consider `COc1ccc(Nc2c(-c3c(F)cccc3F)c(C)nn2C)c(Cl)c1` [compound 201], for which the “Test J rating (% disease control)” value worked out at 99%.

For the compound `COc1cc(F)ccc1Nc1c(-c2c(F)cccc2F)c(C)nn1C` [compound 199], the “Test J rating (% disease control)” value came to 98%.

As for `Cc1cccc(Oc2c(-c3c(F)cc(F)cc3F)c(C)nn2C)c1` [compound 219], the “Test J rating (% disease control)” value is 0%.

In the next experiment the test system is Botrytis cinerea. Briefly: Test B: tomato Botrytis, preventive spray on tomato seedlings, visual disease rating. To be noted: tomato Botrytis; 100 = 100% disease control, 0 = no control relative to controls.
Turning to `Cc1nn(C)c(Nc2ccc(C#N)cc2Cl)c1-c1ccc(F)cc1Cl` [compound 162], the “Test B rating (% disease control)” value is 99%.

With `Cc1nn(C)c(Oc2ccc(C#N)c(C#N)c2)c1-c1ccc(F)cc1Cl` [compound 168], the “Test B rating (% disease control)” value is listed as 14%.

Regarding `COc1ccc(Nc2c(-c3c(F)cccc3F)c(C)nn2C)c(Cl)c1` [compound 201], the “Test B rating (% disease control)” value was found to be 99%.

As to `COc1cc(F)ccc1Nc1c(-c2c(F)cccc2F)c(C)nn1C` [compound 199], the “Test B rating (% disease control)” value was 99%.

`Cc1cccc(Oc2c(-c3c(F)cc(F)cc3F)c(C)nn2C)c1` [compound 219]: the “Test B rating (% disease control)” value was determined as 70%.

The same experiment, now with this note: tomato Botrytis; 100 = 100% disease control, 0 = no disease control relative to controls.
Take `Cc1nn(C)c(Nc2ccc(F)cc2F)c1-c1ccccc1Cl` [compound 315]: the “Test B disease control rating” value was 99%.

`Cc1nn(C)c(Nc2ccc(F)cc2Br)c1-c1c(Cl)cccc1Cl` [compound 340]: the “Test B disease control rating” value came to 99%.

Turning to `Cc1nn(C)c(Nc2ccc(F)cc2Br)c1-c1ccc(F)cc1Br` [compound 313], the “Test B disease control rating” value turned out to be 100%.

The subject of a further experiment is Septoria tritici. Put plainly: Test G: wheat leaf blotch, preventive spray on wheat seedlings, visual disease rating. The settings on record: wheat leaf blotch, sprayed the day before inoculation; 100 = 100% disease control, 0 = no disease control relative to controls.
As for `Cc1nn(C)c(Nc2ccc(F)cc2F)c1-c1ccccc1Cl` [compound 315], the “Test G disease control rating” value is reported as 100%.

With `Cc1nn(C)c(Nc2ccc(F)cc2Br)c1-c1c(Cl)cccc1Cl` [compound 340], the “Test G disease control rating” value came out at 100%.

For the compound `Cc1nn(C)c(Nc2ccc(F)cc2Br)c1-c1ccc(F)cc1Br` [compound 313], the “Test G disease control rating” value is 100%.

Still in this experiment, the particulars now being: wheat leaf blotch; 100 = 100% disease control, 0 = no control relative to controls.
Consider `Cc1nn(C)c(Nc2ccc(C#N)cc2Cl)c1-c1ccc(F)cc1Cl` [compound 162], for which the “Test G rating (% disease control)” value turned out to be 99%.

In the case of `Cc1nn(C)c(Oc2ccc(C#N)c(C#N)c2)c1-c1ccc(F)cc1Cl` [compound 168], the “Test G rating (% disease control)” value is 33%.

In the case of `COc1ccc(Nc2c(-c3c(F)cccc3F)c(C)nn2C)c(Cl)c1` [compound 201], the “Test G rating (% disease control)” value worked out at 100%.

Turning to `COc1cc(F)ccc1Nc1c(-c2c(F)cccc2F)c(C)nn1C` [compound 199], the “Test G rating (% disease control)” value is 99%.

Turning to `Cc1cccc(Oc2c(-c3c(F)cc(F)cc3F)c(C)nn2C)c1` [compound 219], the “Test G rating (% disease control)” value stood at 0%.

The test system of the next experiment is Puccinia recondita f. sp. tritici. Briefly: Test I: wheat leaf rust, preventive spray on wheat seedlings, visual disease rating. To be noted: wheat leaf rust, preventive; 100 = 100% disease control, 0 = no control relative to controls.
For the compound `Cc1nn(C)c(Nc2ccc(C#N)cc2Cl)c1-c1ccc(F)cc1Cl` [compound 162], the “Test I rating (% disease control)” value was 98%.

Consider `Cc1nn(C)c(Oc2ccc(C#N)c(C#N)c2)c1-c1ccc(F)cc1Cl` [compound 168], for which the “Test I rating (% disease control)” value is reported as 0%.

As to `COc1ccc(Nc2c(-c3c(F)cccc3F)c(C)nn2C)c(Cl)c1` [compound 201], the “Test I rating (% disease control)” value came out at 97%.

For the compound `COc1cc(F)ccc1Nc1c(-c2c(F)cccc2F)c(C)nn1C` [compound 199], the “Test I rating (% disease control)” value is on record as 68%.

Consider `Cc1cccc(Oc2c(-c3c(F)cc(F)cc3F)c(C)nn2C)c1` [compound 219], for which the “Test I rating (% disease control)” value stood at 0%.

Staying with this experiment, now noted: wheat leaf rust, sprayed the day before inoculation; 100 = 100% disease control, 0 = no disease control relative to controls.
On to `Cc1nn(C)c(Nc2ccc(F)cc2F)c1-c1ccccc1Cl` [compound 315], for which the “Test I disease control rating” value is given as 96%.

As to `Cc1nn(C)c(Nc2ccc(F)cc2Br)c1-c1c(Cl)cccc1Cl` [compound 340], the “Test I disease control rating” value came out at 91%.

Turning to `Cc1nn(C)c(Nc2ccc(F)cc2Br)c1-c1ccc(F)cc1Br` [compound 313], the “Test I disease control rating” value turned out to be 100%.

Another experiment deals with Septoria nodorum. Briefly: Test F: Septoria glume blotch, preventive spray on wheat seedlings, visual disease rating. The settings on record: Septoria glume blotch on wheat; 100 = 100% disease control, 0 = no disease control relative to controls.
With `Cc1nn(C)c(Nc2ccc(F)cc2F)c1-c1ccccc1Cl` [compound 315], the “Test F disease control rating” value worked out at 0%.

Regarding `Cc1nn(C)c(Nc2ccc(F)cc2Br)c1-c1c(Cl)cccc1Cl` [compound 340], the “Test F disease control rating” value is listed as 0%.

Consider `Cc1nn(C)c(Nc2ccc(F)cc2Br)c1-c1ccc(F)cc1Br` [compound 313], for which the “Test F disease control rating” value came out at 51%.

Staying with this experiment, now noted: Septoria glume blotch; 100 = 100% disease control, 0 = no control relative to controls.
For the compound `Cc1nn(C)c(Nc2ccc(C#N)cc2Cl)c1-c1ccc(F)cc1Cl` [compound 162], the “Test F rating (% disease control)” value is on record as 0%.

On to `Cc1nn(C)c(Oc2ccc(C#N)c(C#N)c2)c1-c1ccc(F)cc1Cl` [compound 168], for which the “Test F rating (% disease control)” value came to 0%.

Consider `COc1ccc(Nc2c(-c3c(F)cccc3F)c(C)nn2C)c(Cl)c1` [compound 201], for which the “Test F rating (% disease control)” value worked out at 20%.

For `COc1cc(F)ccc1Nc1c(-c2c(F)cccc2F)c(C)nn1C` [compound 199], the “Test F rating (% disease control)” value is given as 0%.

Consider `Cc1cccc(Oc2c(-c3c(F)cc(F)cc3F)c(C)nn2C)c1` [compound 219], for which the “Test F rating (% disease control)” value is 0%.

The subject of a further experiment is Puccinia recondita f. sp. tritici. Briefly: Test H: wheat leaf rust, curative spray on inoculated wheat seedlings, visual disease rating. To be noted: wheat leaf rust, curative; 100 = 100% disease control, 0 = no control relative to controls.
In the case of `Cc1nn(C)c(Nc2ccc(C#N)cc2Cl)c1-c1ccc(F)cc1Cl` [compound 162], the “Test H rating (% disease control)” value worked out at 8%.

On to `Cc1nn(C)c(Oc2ccc(C#N)c(C#N)c2)c1-c1ccc(F)cc1Cl` [compound 168], for which the “Test H rating (% disease control)” value came to 0%.

`COc1ccc(Nc2c(-c3c(F)cccc3F)c(C)nn2C)c(Cl)c1` [compound 201]: the “Test H rating (% disease control)” value turned out to be 18%.

With `COc1cc(F)ccc1Nc1c(-c2c(F)cccc2F)c(C)nn1C` [compound 199], the “Test H rating (% disease control)” value is 0%.

As for `Cc1cccc(Oc2c(-c3c(F)cc(F)cc3F)c(C)nn2C)c1` [compound 219], the “Test H rating (% disease control)” value was 17%.

Staying with this experiment, now noted: wheat leaf rust, sprayed after inoculation; 100 = 100% disease control, 0 = no disease control relative to controls.
With `Cc1nn(C)c(Nc2ccc(F)cc2F)c1-c1ccccc1Cl` [compound 315], the “Test H disease control rating” value was 0%.

Consider `Cc1nn(C)c(Nc2ccc(F)cc2Br)c1-c1c(Cl)cccc1Cl` [compound 340], for which the “Test H disease control rating” value stood at 0%.

For `Cc1nn(C)c(Nc2ccc(F)cc2Br)c1-c1ccc(F)cc1Br` [compound 313], the “Test H disease control rating” value turned out to be 91%.
